Experimental data from publication PMC12457078, “Inhibition of soluble epoxide hydrolase in endotoxin induced pig lung injury” (Frontiers in Pharmacology, 2025).
Values joined by “and” are separate entries in the source; they are usually repeats but may differ in a detail not shown here. Equal values may be shown once.

Test system: sEH
Assay: oxylipin analysis, epoxide/diol ratios (target engagement)
Format: in vivo, pig
Set-up: 14,15-DiHETE: unit not given beside the values; 12,13-DiHOME / 9,10-DiHODE / 11,12-DiHETrE / 14,15-DiHETrE / 10,11-DiHDPE / 19,20-DiHDPE / 13-HODE / 5-HETE / 11-HETE / 12-HETE / 5-HEPE / 9(10)-EpOME / 12(13)-EpOME / EKODE / 11(12)-EpETE: unit not given here
Conditions: for 9,10,13-TriHOME sample concentration / 9,12,13-TriHOME sample concentration: bad chromatography; for 14,15-DiHETE: high blanks
Description: All animals were monitored with pulse oximetry, heart rate, ECG, systemic arterial blood pressure (ABP), pulmonary arterial pressure (PAP), central venous pressure (CVP) temperature, tidal volumes, respiratory rate and end tidal carbon dioxide. At baseline, and at 3 h, 6 h and at the end of the experiment, pulmonary capillary wedge pressure (PCWP) was measured together with arterial and venous blood gas analyses, as well as cardiac output calculations. Routine chemistry, including creatinine, bilirubin, glucose, electrolytes were collected at baseline and at the end of the experiment (Vetscan VS2®, Abaxis, Griesheim, Germany). Blood samples for measurement of AEPU plasma concentrations, as well as oxylipins (i.e., EpETrEs and their DiHETrE corresponding diols as well as related compounds with other polyunsaturated fatty acid precursors), were collected at baseline, 6 h and at the end of the experiment.
This meant nine subjects in each group to achieve 90% power of detecting a difference of this size given α = 0.05. Anticipating that not all experiments would reach completion, we used a sample size of 22. The results were analyzed using SPSS Statistics, version 24 (IBM Corp., Armonk, N.Y., United States). Normality was examined with the Shapiro-Wilk test, together with examination of histograms of data. Continuous variables were compared using Student’s t-test or Mann Whitney U test, as appropriate. Categorical variables were compared using Fischer’s exact test. Statistical significance was set at α < 0.05. Oxylipins with at least 80% of observations above limit of detection at both timepoints were included in pairwise comparisons of ratios and fold-change evaluations where observations below limit of detection (LOD) were substituted with 0.5 x LOD.

[1] = Time (h) 0, single pigs of sEH-i group
[2] = Time (h) 6, single pigs of sEH-i group
[3] = animal 20, time 6, sample Schwein36
[4] = animal 22, time 0, sample Schwein37
[5] = animal 22, time 6, sample Schwein38

SMILES: CCOCCOCCOCCCCCNC(=O)NC12CC3CC(CC(C3)C1)C2 [sEH-i]
- 5(6)-EpETrE sample concentration [1]: <LOD
- 5,6-DiHETrE sample concentration [1]: <LOD
- 7(8)-EpDPE sample concentration [1]: <LOD
- 7,8-DiHDPE sample concentration [1]: <LOD
- 8(9)-EpETE sample concentration [1]: <LOD
- 8(9)-EpETrE sample concentration [1]: <LOD
- 8,9-DiHETE sample concentration [1]: <LOD
- 9-HETE sample concentration [1]: <LOD
- 9-oxo-ODE sample concentration [1]: <LOD
- 10(11)-EpDPE sample concentration [1]: <LOD
- 11(12)-EpETE sample concentration [1]: 0.1209 pmol/mL and 0.141 pmol/mL and 0.08872 pmol/mL
- 13(14)-EpDPE sample concentration [1]: <LOD
- 14(15)-EpETE sample concentration [1]: <LOD
- 15-HEPE sample concentration [1]: <LOD
- 16(17)-EpDPE sample concentration [1]: <LOD
- 17(18)-EpETE sample concentration [1]: <LOD
- 17-HDoHE sample concentration [1]: <LOD
- 19(20)-EpDPE sample concentration [1]: <LOD
- LTB4 sample concentration [1]: <LOD
- PGD2 sample concentration [1]: <LOD
- PGE2 sample concentration [1]: <LOD
- PGF2a sample concentration [1]: <LOD
- Resolvin D1 sample concentration [1]: <LOD
- Resolvin D2 sample concentration [1]: <LOD
- TXB2 sample concentration [1]: 0.17 pmol/mL and 0.31 pmol/mL
- 9,10,13-TriHOME sample concentration [1]: 4.78 pmol/mL and 2.75 pmol/mL and 3.27 pmol/mL
- 9,12,13-TriHOME sample concentration [1]: <LOD
- 5(6)-EpETrE sample concentration [2]: <LOD
- 7(8)-EpDPE sample concentration [2]: <LOD
- 7,8-DiHDPE sample concentration [2]: <LOD
- 8(9)-EpETE sample concentration [2]: <LOD
- 8(9)-EpETrE sample concentration [2]: <LOD
- 9-HETE sample concentration [2]: <LOD
- 9-oxo-ODE sample concentration [2]: <LOD
- 10(11)-EpDPE sample concentration [2]: <LOD
- 11(12)-EpETE sample concentration [2]: 0.1453 pmol/mL and 0.09993 pmol/mL and 0.1012 pmol/mL
- 13(14)-EpDPE sample concentration [2]: <LOD
- 14(15)-EpETE sample concentration [2]: <LOD
- 15-HEPE sample concentration [2]: <LOD
- 16(17)-EpDPE sample concentration [2]: <LOD
- 17(18)-EpETE sample concentration [2]: <LOD
- 19(20)-EpDPE sample concentration [2]: <LOD
- LTB4 sample concentration [2]: <LOD
- PGD2 sample concentration [2]: <LOD
- PGE2 sample concentration [2]: <LOD
- Resolvin D1 sample concentration [2]: <LOD
- Resolvin D2 sample concentration [2]: <LOD
- TXB2 sample concentration [2]: 1.20 pmol/mL and 2.15 pmol/mL and 2.09 pmol/mL
- 9,10,13-TriHOME sample concentration [2]: 4.27 pmol/mL and 3.59 pmol/mL and 2.73 pmol/mL
- 9,12,13-TriHOME sample concentration [2]: <LOD
- 5(6)-EpETrE [3]: <LOD
- 5,6-DiHETrE [3]: <LOD
- 5-HEPE [3]: <LOD
- 5-HETE [3]: <LOD
- 5-oxo-ETE [3]: 0.05
- 7(8)-EpDPE [3]: <LOD
- 7,8-DiHDPE [3]: <LOD
- 8(9)-EpETE [3]: <LOD
- 8(9)-EpETrE [3]: <LOD
- 8,9-DiHETE [3]: <LOD
- 8,9-DiHETrE [3]: 0.0443
- 8-HETE [3]: 0.0319
- 9(10)-EpODE [3]: <LOD
- 9(10)-EpOME [3]: 0.34
- 9,10,13-TriHOME [3]: 6.77
- 9,10-DiHODE [3]: 0.0155
- 9,10-DiHOME [3]: 0.21
- 9,12,13-TriHOME [3]: <LOD
- 9-HETE [3]: <LOD
- 9-HODE [3]: 1.17
- 9-HOTrE [3]: 0.2865
- 9-oxo-ODE [3]: <LOD
- 10(11)-EpDPE [3]: <LOD
- 10,11-DiHDPE [3]: <LOD
- 11(12)-EpETE [3]: 0.0834
- 11(12)-EpETrE [3]: 0.0219
- 11,12-DiHETE [3]: 0.0228
- 11,12-DiHETrE [3]: 0.45
- 11-HETE [3]: 0.12
- 12(13)-EpODE [3]: <LOD
- 12(13)-EpOME [3]: 0.3027
- 12,13-DiHODE [3]: <LOD
- 12,13-DiHOME [3]: 0.26
- 12-HEPE [3]: 0.0122
- 12-HETE [3]: 0.06381
- 12-oxo-ETE [3]: <LOD
- 13(14)-EpDPE [3]: <LOD
- 13,14-DiHDPE [3]: 0.04
- 13-HODE [3]: 4.33
- 13-HOTrE [3]: <LOD
- 13-oxo-ODE [3]: <LOD
- 14(15)-EpETE [3]: <LOD
- 14(15)-EpETrE [3]: <LOD
- 14,15-DiHETrE [3]: 0.58
- 15(16)-EpODE [3]: 0.25
- 15,16-DiHODE [3]: 2.37
- 15-HEPE [3]: <LOD
- 15-HETE [3]: 0.23
- 15-HETrE [3]: 0.10
- 15-oxo-ETE [3]: 0.0224
- 16(17)-EpDPE [3]: <LOD
- 16,17-DiHDPE [3]: 0.0373
- 17(18)-EpETE [3]: <LOD
- 17,18-DiHETE [3]: 0.77
- 17-HDoHE [3]: <LOD
- 19(20)-EpDPE [3]: <LOD
- 19,20-DiHDPE [3]: 0.44
- 20-HETE [3]: 0.0531
- EKODE [3]: 0.20
- LTB4 [3]: 0.26
- PGD2 [3]: <LOD
- PGE2 [3]: <LOD
- PGF2a [3]: 0.69
- Resolvin D1 [3]: <LOD
- Resolvin D2 [3]: <LOD
- TXB2 [3]: 2.57
- 14,15-DiHETE [3]: 0.2599
- 5(6)-EpETrE [4]: <LOD
- 5,6-DiHETrE [4]: <LOD
- 5-HEPE [4]: 0.21
- 5-HETE [4]: 0.81
- 5-oxo-ETE [4]: 0.30
- 7(8)-EpDPE [4]: <LOD
- 7,8-DiHDPE [4]: <LOD
- 8(9)-EpETE [4]: <LOD
- 8(9)-EpETrE [4]: <LOD
- 8,9-DiHETE [4]: 0.0568
- 8,9-DiHETrE [4]: 0.11
- 8-HETE [4]: 0.16
- 9(10)-EpODE [4]: 0.39
- 9(10)-EpOME [4]: 1.58
- 9,10,13-TriHOME [4]: 8.76
- 9,10-DiHODE [4]: 0.80
- 9,10-DiHOME [4]: 5.53
- 9,12,13-TriHOME [4]: 1.91
- 9-HETE [4]: <LOD
- 9-HODE [4]: 22.28
- 9-HOTrE [4]: 2.15
- 9-oxo-ODE [4]: <LOD
- 10(11)-EpDPE [4]: <LOD
- 10,11-DiHDPE [4]: 0.12
- 11(12)-EpETE [4]: 0.09412
- 11(12)-EpETrE [4]: 0.09
- 11,12-DiHETE [4]: 0.09
- 11,12-DiHETrE [4]: 1.52
- 11-HETE [4]: 0.33
- 12(13)-EpODE [4]: 0.93
- 12(13)-EpOME [4]: 3.18
- 12,13-DiHODE [4]: 1.66
- 12,13-DiHOME [4]: 19.80
- 12-HEPE [4]: 0.0755
- 12-HETE [4]: 0.69
- 12-oxo-ETE [4]: 4.85
- 13(14)-EpDPE [4]: <LOD
- 13,14-DiHDPE [4]: 0.22
- 13-HODE [4]: 80.31
- 13-HOTrE [4]: 4.84
- 13-oxo-ODE [4]: 6.02
- 14(15)-EpETE [4]: <LOD
- 14(15)-EpETrE [4]: 0.11
- 14,15-DiHETrE [4]: 3.44
- 15(16)-EpODE [4]: 36.18
- 15,16-DiHODE [4]: 74.86
- 15-HEPE [4]: <LOD
- 15-HETE [4]: 0.58
- 15-HETrE [4]: 0.39
- 15-oxo-ETE [4]: 0.15
- 16(17)-EpDPE [4]: <LOD
- 16,17-DiHDPE [4]: 0.63
- 17(18)-EpETE [4]: <LOD
- 17,18-DiHETE [4]: 3.51
- 17-HDoHE [4]: 0.47
- 19(20)-EpDPE [4]: 0.29
- 19,20-DiHDPE [4]: 4.63
- 20-HETE [4]: 0.35
- EKODE [4]: 0.67
- LTB4 [4]: <LOD
- PGD2 [4]: 0.04
- PGE2 [4]: 0.0328
- PGF2a [4]: 0.19
- Resolvin D1 [4]: <LOD
- Resolvin D2 [4]: <LOD
- TXB2 [4]: 0.22
- 14,15-DiHETE [4]: 0.2458
- 5(6)-EpETrE [5]: <LOD
- 5,6-DiHETrE [5]: <LOD
- 5-HEPE [5]: 0.03
- 5-HETE [5]: 0.2075
- 5-oxo-ETE [5]: 0.12
- 7(8)-EpDPE [5]: <LOD
- 7,8-DiHDPE [5]: <LOD
- 8(9)-EpETE [5]: <LOD
